Where two headings read alike, the source gives them in different places.
What was measured:
[1] = Pharmacokinetics after intravenous administration to rats; assay type: in vivo; details: intravenous 0.25 mg/kg
Method: Studies were conducted by Sai Life Sciences (Hinjewadi, Pune, India) to investigate the plasma pharmacokinetics and total colon tissue distribution of Compound I. In particular, pharmacokinetic studies were carried out in: • male C57BL/6 mice, following a single oral administration; and • male Wistar rats following a single intravenous or oral administration.

[2] = test system: intestinal mucosa biopsies from ulcerative colitis patients; assay: Human biopsy assay, cytokine release from biopsies of UC patients; assay type: cell-based; details: 1 μg/mL, 24 hours; relative to DMSO control 100%
Method: Intestinal mucosa biopsies are obtained from the inflamed regions of the colons of IBD patients. The biopsy material is cut into small pieces (2-3 mm) and placed on steel grids in an organ culture chamber at 37° C. in a 5% CO2/95% O2 atmosphere in serum-free media. DMSO control or test compound at the desired concentration are added to the tissue and incubated for 24 hr in the organ culture chamber. The supernatant is harvested for determination of IL-6, IL-8, IL-1β and TNFα levels by R&D ELISA.

d-U937 cells = assay: Accumulation of β catenin in d-U937 cells; assay type: cell-based, human; details: normalised to Reference compound at 1 μg/mL
Method: U937 cells, a human monocytic cell line, are differentiated into macrophage-type cells by incubation with PMA (100 ng/mL) for between 48 to 72 hr. The cells are then incubated with either final concentrations of test compound or vehicle for 18 hr. The induction of β-catenin by the test compound is stopped by replacing the media with 4% formaldehyde solution. Endogenous […] is neutralised by incubating with quenching buffer (100 μL, 0.1% sodium azide, 1% H2O2 in PBS with 0.05% Tween-20) for 20 min. The cells are washed with washing buffer (200 μL; PBS containing 0.05% Tween-20) and incubated with blocking solution (200 μL; 5% milk in PBS) for 1 hr, re-washed with washing buffer (200 μL) and then incubated overnight with anti-β-catenin antibody solution (50 μL) in 1% BSA/PBS (BD, Oxford, UK).
After washing with washing buffer (3×200 μL; PBS containing 0.05% Tween-20), cells are incubated with a HRP-conjugated secondary antibody solution (100 μL) in 1% BSA/PBS (Dako, Cambridge, UK) and the resultant signal is determined colourimetrically (OD: 450 nm with a reference wavelength of 655 nm) using TMB substrate (50 μL; R&D Systems, Abingdon, UK). This reaction is stopped by addition of 1N H2SO4 solution (50 μL). Cells are then washed with washing buffer and 2% crystal violet solution (50 μL) is applied for 30 min. After washing with washing buffer (3×200 μL), 1% SDS (100 μL) is added to each well and the plates are shaken lightly for 1 hr prior to measuring the absorbance at 595 nm (Varioskan® Flash, Thermo-Fisher Scientific).
The measured OD450-655 readings are corrected for cell number by dividing the OD450-655 by the OD595 readings.

[3] = test system: adoptive transfer colitis; assay: Adoptive transfer mouse model; assay type: in vivo, mice
Method: On Study day 0, female Balb/C mice are terminated and spleens obtained for CD45RB^high cell isolation (Using SCID IBD cell Separation protocol). Approximately 4×10^5 cells/mL CD45RB^high cells are then injected intraperitoneally (100 μL/mouse) into female SCID animals. On study day 14, mice are weighed and randomized into treatment groups based on body weight. On Day 14, the compound is administered BID, via oral gavage, in a vehicle comprising a defined mixture of corn oil (32.5%), transcutol (20%), maisine (12.5%) and cremophor ELP (35%) at the dose levels outlined below in Tables 6a and 6b and a dose volume of 5 mL/kg. Treatment continues until study day 42, at which point the animals are necropsied 4 hours after the morning administration. The colon length and weight are recorded and used as a secondary endpoint in the study as a measurement of colon oedema. The colon is then divided into six cross-sections, four of which are used for histopathology scoring (primary endpoint) and two are homogenised for cytokine analysis. Data shown is the % inhibition of the induction window between naïve animals and vehicle animals, where higher inhibition implies closer to the non-diseased, naïve, phenotype.

p38 MAPKα = p38 MAPKα (Homo sapiens (Human), UniProt Q16539); assay: KINOMEscan dissociation constant, p38 MAPKα; assay type: binding
Sequence of p38 MAPKα (Q16539 whole entry, looked up): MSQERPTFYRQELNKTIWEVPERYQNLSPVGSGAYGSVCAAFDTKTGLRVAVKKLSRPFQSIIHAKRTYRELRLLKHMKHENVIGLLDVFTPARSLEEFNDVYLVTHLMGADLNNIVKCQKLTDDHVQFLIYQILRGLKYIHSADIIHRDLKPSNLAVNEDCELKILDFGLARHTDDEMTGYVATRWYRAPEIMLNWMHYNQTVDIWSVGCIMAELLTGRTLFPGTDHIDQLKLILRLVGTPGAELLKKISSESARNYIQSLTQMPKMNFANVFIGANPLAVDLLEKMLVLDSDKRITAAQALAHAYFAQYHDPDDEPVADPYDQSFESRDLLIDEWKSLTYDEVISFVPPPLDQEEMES
Method: Kinase enzyme binding activities of compounds disclosed herein may be determined using a proprietary assay which measures active site-directed competition binding to an immobilized ligand (Fabian, M. A. et al., Nature Biotechnol., 2005, 23:329-336). These assays may be conducted by DiscoverX (formerly Ambit; San Diego, Calif.). The percentage inhibition produced by incubation with a test compound may be calculated relative to the non-inhibited control.

CYP3A4 = CYP3A4 (Homo sapiens (Human), UniProt P08684); assay: CYP3A4 inhibition with and without preincubation; assay type: in vitro ADME; details: for inhibition at 15 µM: human, read-out: 15 μM % Inh
Sequence of CYP3A4 (P08684 whole entry): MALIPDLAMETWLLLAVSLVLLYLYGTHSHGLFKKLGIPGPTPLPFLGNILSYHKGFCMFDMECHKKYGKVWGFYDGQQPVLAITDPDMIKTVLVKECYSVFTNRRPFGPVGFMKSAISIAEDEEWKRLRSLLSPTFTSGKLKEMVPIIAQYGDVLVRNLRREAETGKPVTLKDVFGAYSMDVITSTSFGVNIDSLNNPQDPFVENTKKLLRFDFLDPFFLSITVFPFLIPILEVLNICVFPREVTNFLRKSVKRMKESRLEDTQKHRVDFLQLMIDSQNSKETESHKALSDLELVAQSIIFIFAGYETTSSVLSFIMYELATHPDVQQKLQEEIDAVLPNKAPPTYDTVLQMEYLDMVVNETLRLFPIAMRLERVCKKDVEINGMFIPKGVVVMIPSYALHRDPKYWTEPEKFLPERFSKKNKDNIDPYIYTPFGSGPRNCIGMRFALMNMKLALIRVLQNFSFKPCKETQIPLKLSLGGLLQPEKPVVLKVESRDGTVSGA
Method: Assessment of certain in vitro ADME (absorption, distribution, metabolism, and excretion) parameters for Compound I was conducted by BioFocus (Saffron Walden, UK). The results reveal that Compound I is cleared rapidly by human hepatocytes and that it has a reduced liability for time-dependent cytochrome P450 inhibition.

[4] = test system: rat, Cynomolgus macaque or human hepatocytes; assay: Analysis of metabolites in hepatocyte incubations; assay type: in vitro ADME; details: 10 μM, 0, 60 and 90 minutes
Method: Studies were conducted by BioFocus (Saffron Walden, UK) to determine the metabolic fate of Compound I following incubation with rat, Cynomolgus macaque or human hepatocytes.
Separate incubations (n=3) of Compound I (10 μM initial concentration) or DMSO control, were performed with cryopreserved hepatocytes from each species (0.5 million cell/mL) at 37° C. for 0, 60 and 90 minutes before termination of reactions and compound extraction with acetonitrile. Sample replicates were pooled prior to analysis.
Potential metabolites were identified using time-of-flight (TOF) and triple quadruple (TQ) mass spectrometers.

C#Cc1cc(Nc2nccc(Oc3ccc(NC(=O)Nc4cc(C(C)(C)C)cc(NS(C)(=O)=O)c4OC)c4ccccc34)n2)cc(C(=O)NCCOCCOCCOC)c1 [Compound I, 3-((4-((4-(3-(5-(tert-Butyl)-2-methoxy-3-(methylsulfonamido)phenyl)ureido)naphthalen-1-yl)oxy)pyrimidin-2-yl)amino)-5-ethynyl-N-(2-(2-(2-methoxyethoxy)ethoxy)ethyl)benzamide]
CI [1]: 4.8 mL/min/kg
AUC(0-inf) ([1]; male, Wistar, rat, plasma): 871 ng·h/mL
AUC(0-t) ([1]; male, Wistar, rat, plasma): 869 ng·h/mL
C0 ([1]; male, Wistar, rat, plasma): 6540 ng/mL
half-life ([1]; male, Wistar, rat, plasma): 6 min
Vd ([1]; male, Wistar, rat, plasma, read-out: Vss): 0.03 L/kg
IL-1β release from biopsies of UC patients [2]: 5 ± 8%
IL-6 release from biopsies of UC patients [2]: 17 ± 23%
IL-8 release from biopsies of UC patients [2]: 9 ± 15%
% β-catenin induction (d-U937 cells; 1 μg/mL): 21%
% β-catenin induction (d-U937 cells; 5 μg/mL): 14%
% β-catenin induction (d-U937 cells; 10 μg/mL): 26%
IFNγ level in colon tissue ([3]; 3 mg/kg): 10.8 ± 3.3 pg/mL
IL-8 level in colon tissue ([3]; 3 mg/kg): 70.8 ± 22.8 pg/mL
Colon weight:length ([3]; 3 mg/kg BID oral): 0.024 ± 0.003
% Inhibition of induction window between naïve and vehicle animals ([3]; 3 mg/kg BID oral, colon weight:length): 90%
Colon weight:length ([3]; additional study, 0.03 mg/kg): 0.033 ± 0.002
Colon weight:length ([3]; additional study, 0.3 mg/kg): 0.041 ± 0.005
Colon weight:length ([3]; additional study, 3 mg/kg): 0.034 ± 0.003
Kd (p38 MAPKα): 9 nM
IC50 (CYP3A4; CYP3A4, 0 min preincubation): > 15 µM
IC50 (CYP3A4; CYP3A4, 30 min preincubation): 7.8 µM
inhibition at 15 µM (CYP3A4; CYP3A4, 0 min preincubation): 31%
inhibition at 15 µM (CYP3A4; CYP3A4, 30 min preincubation): 54%
number of metabolites formed in hepatocytes [4]: 9
products connected to metabolism at the naphthalene moiety [4]: no products were noted
